Where two headings read alike, the source gives them in different places.
Experiments:
Caco-2 permeability = format: in vitro ADME; conditions: human; for recovery at 10 μM: Caco-2, Caco-2, 10 μM; for Papp A→B at 10 μM / Papp B→A at 10 μM: Caco-2, pH 6.5 and 7.4, 10 μM; for Papp A→B at 10 μM: apical to basolateral; for Papp B→A at 10 μM: basolateral to apical
Excerpt: (§1) In vitro ADME profiling of compounds was done by Eurofins Panlabs Inc (St Charles, MO, USA) using their ADME-Tox service (Cat Ref P375, Tier 1 ADME Panel). […] (28). The atom-based log P calculation method, called OsirisP, uses as an increment system and adds contributions of every atom based on its atom type. The prediction engine distinguishes a total of 368 atom types and was optimized using a training set of more than 5000 molecules with experimentally determined log P values. The free prediction engine has proven to outperform many alternative calculation methods (29).
Caco-2 cells were derived from a human colorectal adenocarcinoma. For permeability assays, cells were seeded at 1×10^5 cells/cm2 in 96 Multiscreen™ plates (Millipore) and used at days 21-25 post-seeding. Cells were used for 15 consecutive passages in culture. HBSS with 10 mM MES at pH 6.5 (apical side) or HBSS with HEPES at pH 7.4 (basolateral side) were used as the transport buffers. Test compounds were added at 10 μM concentration (final solvent concentration of 1% DMSO) to the apical side to determine apical to basolateral (A-B) transport and to the basal side to determine basolateral to apical (B-A) transport. For inhibition studies, 100 μM verapamil was included on both the A and B sides. Aliquots were taken from the donor side (A-B transport) at time zero and the end point, and from the receiver side (B-A transport) at the end point. Propranolol, labetalol, ranitidine, and colchicine (P-glycoprotein substrate) were included in each assay. Samples were analysed by HPLC-MS/MS for quantification. Papp (cm/sec) was calculated from the following equation: […]
Where VR is the volume of the receiver, C is the concentration of the test compound (either at the donor or receiver side and at mid-point or end point of the incubation), Δt is the incubation time (seconds) and A is the surface area of the cell monolayer (0.11 cm^2).

[1] = Intrinsic clearance (liver microsomes); format: in vitro ADME; conditions: pooled liver microsomes, pH 7.4, human liver microsomes
Excerpt: as §1
Metabolic stability of the test compounds was evaluated in pooled liver microsomes from human species. Test compounds were pre-incubated with liver microsomes in phosphate buffer (pH 7.4) in a 37° C. shaking water bath for 5 min and an NADPH-generating system was added to initiate the reaction. Samples were collected at time points of 0, 15, 30, 45 and 60 min and extracted with acetonitrile/methanol. After centrifugation, the supernatants were analysed by HPLC-MS/MS. T1/2 was calculated from the slope of the line obtained by plotting the natural logarithmic percentage (Ln %) of the test compound remaining in the reaction mixture vs. incubation time (min). CLint (μL/min/mg protein) was calculated from T1/2 using following equation: […]

AVPR1A = AVPR1A (Homo sapiens, UniProt P37288); assay: Calcium Flux AVPR1A Agonist; format: cell-based; conditions: for Emax: read-out: Max response; for EC50: read-out: RC50, result type EC50
Sequence of AVPR1A (P37288 whole entry): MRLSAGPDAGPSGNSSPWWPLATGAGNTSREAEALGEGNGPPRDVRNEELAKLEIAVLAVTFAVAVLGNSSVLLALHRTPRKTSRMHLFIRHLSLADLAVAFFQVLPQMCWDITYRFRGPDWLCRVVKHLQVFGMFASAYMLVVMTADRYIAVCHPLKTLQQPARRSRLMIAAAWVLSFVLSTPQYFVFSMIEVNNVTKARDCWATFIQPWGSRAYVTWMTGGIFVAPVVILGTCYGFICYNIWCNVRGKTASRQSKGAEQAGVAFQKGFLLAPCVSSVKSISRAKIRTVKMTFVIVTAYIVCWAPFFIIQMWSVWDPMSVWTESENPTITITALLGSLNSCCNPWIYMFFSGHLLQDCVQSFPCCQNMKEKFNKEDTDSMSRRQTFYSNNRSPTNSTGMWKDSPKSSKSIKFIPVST
Protocol: (≤0.2% DMSO concentration). Assays were performed in 1× dye loading buffer consisting of 1× Dye (DiscoverX, Calcium No Wash^PLUS kit, Catalog No. 90-0091), 1× Additive A and 2.5 mM Probenecid in HBSS/20 mM HEPES. Probenecid was prepared fresh. Prior to testing, media was aspirated from cells and replaced with 25 μL dye loading buffer. Cells were incubated for 45 min at 37° C. and then 20 min at RT. For agonist determination, 25 μL of 2× compound in HBSS/20 mM HEPES was added using a FLIPR Tetra (MDS). […] 25 μL of 2× sample was added and cells were incubated for 30 min at RT in the dark to equilibrate plate temperature. After incubation, antagonist determination was initiated by addition of 25 μL of 1× compound with 3×EC80 agonist using FLIPR. For both agonist and antagonist formats, activity was measure on a FLIPR Tetra (MDS). Calcium mobilization was monitored for 2 min with a 5 sec baseline read.
FLIPR read—Area under the curve, was calculated for the entire 2 min read.

HTR3A = biological target: T1, HTR3A (Homo sapiens, UniProt P46098); assay: Ion Channel HTR3A Blocker; format: cell-based; conditions: for Emax: Ion Channel HTR3A Blocker, read-out: Max response
T1 sequence (P46098 24-478): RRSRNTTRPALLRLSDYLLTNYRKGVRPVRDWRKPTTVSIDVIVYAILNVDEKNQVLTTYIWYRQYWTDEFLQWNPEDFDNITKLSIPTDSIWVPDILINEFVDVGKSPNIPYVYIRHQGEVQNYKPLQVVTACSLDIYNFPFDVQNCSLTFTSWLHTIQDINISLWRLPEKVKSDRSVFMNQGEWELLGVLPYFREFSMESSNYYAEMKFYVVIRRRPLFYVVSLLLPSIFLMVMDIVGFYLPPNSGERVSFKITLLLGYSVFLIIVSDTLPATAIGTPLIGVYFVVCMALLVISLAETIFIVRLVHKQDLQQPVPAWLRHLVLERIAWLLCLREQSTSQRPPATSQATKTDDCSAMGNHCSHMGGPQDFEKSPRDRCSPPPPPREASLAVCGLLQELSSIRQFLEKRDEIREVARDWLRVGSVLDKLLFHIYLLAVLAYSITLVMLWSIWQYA

GABAA = GABAA (Homo sapiens, UniProt P14867+P18507+P47870); assay: Ion Channel GABAA Opener; format: cell-based; conditions: read-out: Max response
Sequence of GABAA (P14867 28-456): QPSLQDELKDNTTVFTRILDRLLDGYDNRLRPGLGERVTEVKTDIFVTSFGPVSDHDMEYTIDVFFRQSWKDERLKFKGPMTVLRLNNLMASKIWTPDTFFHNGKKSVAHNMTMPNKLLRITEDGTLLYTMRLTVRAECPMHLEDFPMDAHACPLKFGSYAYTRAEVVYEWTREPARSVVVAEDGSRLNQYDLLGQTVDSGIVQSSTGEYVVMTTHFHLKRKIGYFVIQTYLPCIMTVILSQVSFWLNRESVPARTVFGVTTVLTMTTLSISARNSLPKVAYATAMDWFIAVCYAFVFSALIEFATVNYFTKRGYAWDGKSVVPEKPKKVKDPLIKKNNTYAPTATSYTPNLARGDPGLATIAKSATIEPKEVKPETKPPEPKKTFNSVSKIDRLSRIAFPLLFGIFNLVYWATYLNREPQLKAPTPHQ
Sequence of GABAA (P47870 26-512): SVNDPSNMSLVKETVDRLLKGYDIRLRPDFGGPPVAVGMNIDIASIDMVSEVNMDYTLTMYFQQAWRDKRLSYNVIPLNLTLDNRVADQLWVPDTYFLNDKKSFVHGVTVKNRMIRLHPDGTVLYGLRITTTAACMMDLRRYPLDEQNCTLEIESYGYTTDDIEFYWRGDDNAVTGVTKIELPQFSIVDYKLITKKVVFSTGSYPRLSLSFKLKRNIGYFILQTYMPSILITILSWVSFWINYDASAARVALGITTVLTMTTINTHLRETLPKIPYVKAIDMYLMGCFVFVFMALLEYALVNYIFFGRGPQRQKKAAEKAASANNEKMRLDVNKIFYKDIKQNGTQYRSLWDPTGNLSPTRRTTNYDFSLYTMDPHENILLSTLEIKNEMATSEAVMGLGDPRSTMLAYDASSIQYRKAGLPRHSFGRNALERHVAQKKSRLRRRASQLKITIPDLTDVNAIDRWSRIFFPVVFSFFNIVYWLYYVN
Sequence of GABAA (P18507 40-475): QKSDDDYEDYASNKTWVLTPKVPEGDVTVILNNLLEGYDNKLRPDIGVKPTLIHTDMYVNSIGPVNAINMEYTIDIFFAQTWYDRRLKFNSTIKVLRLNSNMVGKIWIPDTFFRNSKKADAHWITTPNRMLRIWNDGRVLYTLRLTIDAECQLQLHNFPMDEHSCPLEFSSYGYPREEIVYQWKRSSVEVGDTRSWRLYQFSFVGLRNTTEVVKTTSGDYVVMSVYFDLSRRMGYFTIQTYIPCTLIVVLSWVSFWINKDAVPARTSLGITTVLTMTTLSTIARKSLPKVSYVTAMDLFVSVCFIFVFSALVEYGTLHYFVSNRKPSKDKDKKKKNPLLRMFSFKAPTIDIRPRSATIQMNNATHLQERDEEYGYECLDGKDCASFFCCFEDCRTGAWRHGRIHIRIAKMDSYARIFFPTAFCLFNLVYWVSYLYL

DAT = biological target: T2, DAT (Homo sapiens, UniProt Q01959); assay: Transporter DAT Blocker; format: cell-based; conditions: for Emax: Transporter DAT Blocker, read-out: Max response
T2 construct: Eurofins DiscoverX Corporation 87-1003DR; host or cells: unnamed cell lines
T2 sequence (Q01959 whole entry): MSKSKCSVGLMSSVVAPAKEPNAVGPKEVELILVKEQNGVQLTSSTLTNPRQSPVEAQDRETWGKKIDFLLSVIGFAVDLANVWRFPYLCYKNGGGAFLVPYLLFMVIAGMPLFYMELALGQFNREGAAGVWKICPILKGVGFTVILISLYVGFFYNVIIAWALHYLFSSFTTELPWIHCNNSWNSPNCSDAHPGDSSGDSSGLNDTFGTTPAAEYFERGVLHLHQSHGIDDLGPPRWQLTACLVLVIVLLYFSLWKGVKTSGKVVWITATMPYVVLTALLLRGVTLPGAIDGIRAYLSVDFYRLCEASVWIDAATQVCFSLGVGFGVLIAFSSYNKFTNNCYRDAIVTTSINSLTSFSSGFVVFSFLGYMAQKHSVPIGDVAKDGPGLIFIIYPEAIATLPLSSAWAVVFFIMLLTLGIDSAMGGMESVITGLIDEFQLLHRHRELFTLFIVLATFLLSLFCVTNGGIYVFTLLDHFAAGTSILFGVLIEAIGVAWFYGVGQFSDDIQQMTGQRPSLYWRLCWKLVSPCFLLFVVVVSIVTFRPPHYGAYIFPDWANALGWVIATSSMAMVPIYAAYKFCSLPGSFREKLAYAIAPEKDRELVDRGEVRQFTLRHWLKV
Protocol: After cell plating and incubation, media was removed an 25 μL of 1× compound in 1×HBSS/0.1% BSA was added. Compounds were incubated with cells for 30 min at 37° C. After compound incubation, 25 μL of 1× dye loading buffer (1× dye, 1×HBSS/20 mM HEPES) was added to the wells. Cells were incubated for 30-60 min at 37° C. After incubation, microplates were transferred to a PerkinElmer Envision™ instrument for fluorescent signal detection. […] For blocker mode assays, percentage of inhibition was calculated using the following formula: […]

DRD2S = DRD2S (Homo sapiens, UniProt P14416); assay: cAMP DRD2S Agonist; conditions: for Emax: read-out: Max response
Sequence of DRD2S (P14416 1-414 isoform P14416-2): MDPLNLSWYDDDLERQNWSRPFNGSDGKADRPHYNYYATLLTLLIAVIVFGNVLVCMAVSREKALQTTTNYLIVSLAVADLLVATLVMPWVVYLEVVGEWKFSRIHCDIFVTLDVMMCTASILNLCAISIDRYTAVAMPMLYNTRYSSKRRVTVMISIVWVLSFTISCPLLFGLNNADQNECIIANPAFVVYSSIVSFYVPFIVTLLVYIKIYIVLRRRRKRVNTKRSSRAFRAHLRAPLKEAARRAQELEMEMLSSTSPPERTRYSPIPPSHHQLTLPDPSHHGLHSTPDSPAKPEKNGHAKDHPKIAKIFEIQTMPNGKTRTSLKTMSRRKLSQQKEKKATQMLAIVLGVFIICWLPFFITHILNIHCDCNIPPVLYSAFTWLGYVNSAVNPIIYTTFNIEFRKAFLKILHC
Protocol: In vitro pharmacological profiling of compounds was done against 78 functional assays for 47 common off-targets (30) by Eurofins DiscoverX Corporation (Fremont, CA, USA) using their SAFETYscan E/IC50 ELECT service (Cat Ref 87-1003DR, Safety47 Panel Dose Response). […] Compounds were tested in a range of 10 concentrations, following a 3-fold serial dilution, starting from 10 μM.
cAMP Hunter cell lines were expanded from freezer stocks. Prior to testing, cells were seeded in a total volume of 20 μL into white walled 384-well microplates and incubated at 37° C. cAMP modulation was determined using the DiscoverX HitHunter cAMP XS+ assay. For Gs agonist determination, cells were incubated with sample to induce response. For Gi agonist determination, cells were incubated with sample in the presence of EC80 forskolin to induce response. For both conditions, media was aspirated from cells and replaced with 15 μL 2:1 HBSS/10 mM HEPES:cAMP XS+ Ab reagent. Intermediate dilution of sample stocks was performed to generate 4× sample in assay buffer (containing 4×EC80 forskolin in the case of antagonist determination). 5 μL of 4× sample was added to cells and incubated at 37° C. or room temperature (RT) for 30 or 60 min. Final assay vehicle concentration was 1%. For antagonist determination, cells were pre-incubated with sample followed by agonist challenge at the EC80 concentration. Media was aspirated from cells and replaced with 10 μL 1:1 HBSS/HEPES:cAMP XS+ Ab reagent. 5 μL of 4× compound was added to the cells and incubated at 37° C. or RT for 30 min. 5 μL of 4×EC80 agonist was added to the cells and incubated at 37° C. or RT for 30 or 60 min. For Gi coupled GPCRs, EC80 forskolin was included. […] Microplates were read following signal generation with a PerkinElmer Envision™ instrument for chemiluminescent signal detection. Compound activity was analyzed using CBIS data analysis suite (ChemInnovation, CA).

[2] = read-out: percentual recovery, apical to basolateral direction
[3] = read-out: percentual recovery, basolateral to apical direction

| SMILES | recovery at 10 μM (Caco-2 permeability; [2]) | recovery at 10 μM (Caco-2 permeability; [3]) | Papp A→B at 10 μM (Caco-2 permeability) | Papp B→A at 10 μM (Caco-2 permeability) | half-life at 100 nM [1] | microsomal CLint at 100 nM [1] | Emax (AVPR1A; Calcium Flux AVPR1A Agonist) | EC50 (AVPR1A; Calcium Flux AVPR1A Agonist) | IC50 (HTR3A) | Emax (HTR3A) | Emax (GABAA) | IC50 (DAT) | Emax (DAT) | EC50 (DRD2S) | Emax (DRD2S) | Emax (AVPR1A) |
| --- | --- | --- | --- | --- | --- | --- | --- | --- | --- | --- | --- | --- | --- | --- | --- | --- |
| Clc1cccc(C#Cc2n[nH]c3ncccc23)c1 [Compound 10.1, 3-((3-chlorophenyl)ethynyl)-1H-pyrazolo[3,4-b]pyridine] | 13% | 44% | 3.3 ×10⁻⁶ cm/s | 0.7 ×10⁻⁶ cm/s | 10 min | 748 µL/min/mg | 7.9% | > 10 µM | > 10 µM | 19.7% | 1.3% | > 10 µM | 33.1% | > 10 µM | 15% |  |
| CC(C)(C)c1ccc(C#CC(O)c2ccccc2)cc1 (racemic) [Compound 3.3, rac-3-(4-(tert-butyl)phenyl)-1-phenylprop-2-yn-1-ol] | 6% | 15% | 0.4 ×10⁻⁶ cm/s | 0.1 ×10⁻⁶ cm/s | 19 min | 381 µL/min/mg |  | > 10 µM | > 10 µM | 50.1% | 0% | > 10 µM | 0% | > 10 µM | 0% | 8.7% |

Source: US20250186408A1, “TREATMENT OF PHARMACORESISTANT EPILEPSY” (Katholieke Universiteit Leuven, priority 2021, published 2025)
